According to patent US7223796B2, “Acyl-4-carboxyphenylurea derivatives, processes for preparing them and their use” (Sanofi-aventis Deutschland GmbH, priority 2002, dated 2007):

Experiments:
[1] = biological target: T1, Human glycogen phosphorylase a (Homo sapiens, UniProt P06737); assay: Glycogen phosphorylase a activity test; format: biochemical; conditions: read-out: % inhibition at 10 μM; 10 μM test substance; GPa measured in reverse direction (glycogen synthesis from glucose 1-phosphate, phosphate release)
T1 sequence (P06737 2-847 limits assumed): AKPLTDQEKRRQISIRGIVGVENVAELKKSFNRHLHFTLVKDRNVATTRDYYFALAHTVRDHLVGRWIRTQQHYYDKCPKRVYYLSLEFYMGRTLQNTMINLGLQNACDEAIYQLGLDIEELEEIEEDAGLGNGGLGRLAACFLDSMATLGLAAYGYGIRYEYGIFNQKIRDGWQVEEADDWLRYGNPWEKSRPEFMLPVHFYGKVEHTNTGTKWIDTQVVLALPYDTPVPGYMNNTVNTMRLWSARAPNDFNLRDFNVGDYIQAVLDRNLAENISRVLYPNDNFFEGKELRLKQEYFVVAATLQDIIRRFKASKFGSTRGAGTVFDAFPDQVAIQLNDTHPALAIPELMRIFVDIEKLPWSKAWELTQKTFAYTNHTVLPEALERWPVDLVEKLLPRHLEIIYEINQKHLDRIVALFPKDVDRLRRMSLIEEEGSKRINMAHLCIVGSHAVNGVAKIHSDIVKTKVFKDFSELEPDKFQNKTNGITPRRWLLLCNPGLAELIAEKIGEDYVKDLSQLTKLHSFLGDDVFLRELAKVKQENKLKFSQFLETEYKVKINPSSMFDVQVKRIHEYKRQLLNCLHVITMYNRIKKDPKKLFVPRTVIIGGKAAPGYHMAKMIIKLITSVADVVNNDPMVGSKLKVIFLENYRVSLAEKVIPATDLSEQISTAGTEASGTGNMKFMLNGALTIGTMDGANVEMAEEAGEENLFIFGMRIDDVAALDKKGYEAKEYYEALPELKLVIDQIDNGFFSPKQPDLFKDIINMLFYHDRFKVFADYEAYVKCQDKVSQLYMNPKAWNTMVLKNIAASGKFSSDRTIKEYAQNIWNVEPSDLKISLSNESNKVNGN
Method: Glycogen Phosphorylase a Activity Test
All the reactions were carried out as duplicate determinations in 96-well microtiter plates (Half Area Plates, Costar No. 3696), with the change in absorption due to the formation of the reaction product being measured, at the wavelength specified below, in a Multiscan Ascent Elisa Reader (Lab Systems, Finland). In order to measure the enzymic activity of GPa in the reverse direction, the conversion of glucose 1-phosphate into glycogen and inorganic phosphate was measured in accordance with the general method of Engers et al. (Engers H D, Shechosky S, Madsen N B, Can J Biochem 1970 July;48(7): 746–754) but with the following modifications: Human glycogen phosphorylase a (for example containing 0.76 mg of protein/ml (Aventis Pharma Deutschland GmbH), dissolved in buffer solution E (25 mM β-glycerophosphate, pH 7.0, 1 mM EDTA and 1 mM dithiothreitol), was diluted with buffer T (50 mM Hepes, pH 7.0, 100 mM KCl, 2.5 mM EDTA, 2.5 mM MgCl2.6H2O), and addition of 5 mg of glycogen/ml, to a concentration of 10 μg of protein/ml. […] The basal value of the activity of the glycogen phosphorylase a in the absence of test substance was determined by adding 10 μl of buffer solution T (0.1% DMSO). […] After 60 minutes of incubation at 45° C., the absorption was measured at 820 nm. […]

O=C(NC(=O)c1cc(F)c(F)cc1Cl)Nc1ccc(C(=O)O)cc1OC(F)(F)F [Example 48, 4-[3-(2-Chloro-4,5-difluorobenzoyl)ureido]-3-trifluoromethoxybenzoic acid]
inhibition at 10 µM [1]: 99%
melting point: 236 °C
